Data as given in PMC5446775, “Interactions of 172 plant extracts with human organic anion transporter 1 (SLC22A6) and 3 (SLC22A8): a study on herb-drug interactions” (PeerJ, 2017).
Values joined by “and” are separate entries in the source; they are usually repeats but may differ in a detail not shown here. Equal entries are not always repeated.

Assays:
[1] = Pharmacokinetics of furosemide in rats with and without Juncus effusus extract; assay type: in vivo; details: FS 10 mg/kg i.v. alone
[2] = target: T1, hOAT3 (Homo sapiens, UniProt Q8TCC7); assay: Inhibition of 6-CF uptake in HEK-OAT3 cells (screening at 5 μg/ml and concentration-dependent inhibition); assay type: cell-based; set-up: Invitrogen (Flp-In system, cells); 6-CF uptake OAT3, Figure 2 raw data (single replicates) / OAT3-mediated 6-CF uptake (Inhibitory effects of butanol extracts on OAT-mediated 6-CF), raw replicate values / OAT3-mediated 6-CF uptake (Inhibitory effects of aqueous extracts on OAT-mediated 6-CF), raw replicate values: unit not given here
T1 sequence (Q8TCC7 1-542): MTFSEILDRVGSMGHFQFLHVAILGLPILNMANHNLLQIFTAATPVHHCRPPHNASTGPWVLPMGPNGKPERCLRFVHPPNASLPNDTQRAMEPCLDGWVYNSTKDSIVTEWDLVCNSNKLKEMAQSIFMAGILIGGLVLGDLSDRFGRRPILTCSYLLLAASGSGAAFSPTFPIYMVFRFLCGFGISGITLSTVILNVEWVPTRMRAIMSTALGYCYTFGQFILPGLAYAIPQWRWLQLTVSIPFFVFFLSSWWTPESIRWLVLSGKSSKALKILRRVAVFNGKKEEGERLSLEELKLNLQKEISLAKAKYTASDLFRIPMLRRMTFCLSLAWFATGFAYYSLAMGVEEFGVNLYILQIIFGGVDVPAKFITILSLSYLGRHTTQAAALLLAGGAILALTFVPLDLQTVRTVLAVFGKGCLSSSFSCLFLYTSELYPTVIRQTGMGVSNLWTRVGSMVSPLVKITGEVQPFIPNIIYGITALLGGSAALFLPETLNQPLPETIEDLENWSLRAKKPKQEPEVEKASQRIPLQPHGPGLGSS
Protocol: The stock solutions of plant extracts were prepared using DMSO with a final concentration of 1 mg/ml. The initial concentration for each extract was set at 5 μg∕ml. Every well contained the same concentration of DMSO (0.5%) to eliminate the potential effect of solvent. […] Before the initial screening, the reproducibility of uptake experiments was evaluated. […] Due to the large number of samples, for the initial screening study, each uptake experimental sample was measured in triplicates in the same assay.
After the uptake was terminated at 4 min and 10 min for OAT1 and OAT3 respectively, intracellular fluorescence was determined as above.

| Clobs of FS [1] | V z_obs of FS [1] | 6-CF fluorescence of cells (fluorescence images) ([2]; HEK-OAT3, co-incubation with probenecid 30 μM) | OAT3-mediated 6-CF uptake (Inhibitory effects of aqueous extracts on OAT-mediated 6-CF), raw replicate values ([2]; aqueous extracts, screening at 5 μg/ml, HEK-OAT3 cells, three replicate columns, Control about 100, Prob = positive control) | OAT3-mediated 6-CF uptake (Inhibitory effects of butanol extracts on OAT-mediated 6-CF), raw replicate values ([2]; butanol extracts, screening at 5 μg/ml, HEK-OAT3 cells, three replicate columns, Control about 100, Prob = positive control) | 6-CF uptake OAT3, Figure 2 raw data (single replicates) ([2]; probenecid 30 μM positive control, 6-CF 4 μM, 10 min, HEK-OAT3) | Compound |
| --- | --- | --- | --- | --- | --- | --- |
| 1.0 ± 1.0 L/min/kg × 10^−3 | 146.9 ± 12.1 L/kg ×10^−3 | – | – | – | – | NS(=O)(=O)c1cc(C(=O)O)c(NCc2ccco2)cc1Cl [FS, furosemide] |
| – | – | almost completely abolished | 2.375 and 2.144 and 0.9311 | 2.375 and 2.144 and 0.9311 | 2.375 and 2.144 and 0.9311 | CCCN(CCC)S(=O)(=O)c1ccc(C(=O)O)cc1 [probenecid, Probenecid] |
